Assay results reported in PMC4295395, “An open label pilot study to evaluate the efficacy of Spanish black radish on the induction of phase I and phase II enzymes in healthy male subjects” (BMC Complementary and Alternative Medicine, 2014).

Assays:
[1] = Plasma acetaminophen and metabolite profile (HPLC) after 1000 mg acetaminophen, at week 0 and after 4 weeks of SBR supplementation; settings: for Decrease of plasma AUC0-8h from week 0 to week 4: after 4 weeks SBR supplementation; for Decrease of plasma AUC0-8h from week 0 to week 4 / Plasma AUC(0–8 hour) / Plasma Tmax / Plasma Cmax / AUC(0-t) / Cmax / Tmax: 1000 mg acetaminophen; for Plasma Tmax, difference from week 0 to week 4: after 4 weeks SBR vs week 0, mean ± SD; for AUC(0-t) / Cmax / Tmax: male, human, plasma, oral, 1000 mg; for AUC(0-t): Plasma AUC(0–8 hour); for Cmax: Plasma Cmax; for Tmax: Plasma Tmax
Method: (§1) Participants returned to the clinic for their 8-hour in-clinic baseline visit (week 0) at which time their heart rate and blood pressure were measured and BMI calculated. […] Meals were provided after the pre-dose and 4-hour blood collection. After the 8-hour test period, participants received 3-day food records and paper diaries for recording their study product use, changes in concomitant therapies, and any side effects/changes in health conditions.
(§2) Participants returned to the clinic in a fasting state at 28 days post-baseline (week 4) for an 8-hour in-clinic test at which time heart rate and blood pressure were measured and BMI was calculated. […] Meals were provided after the pre-dose and the 4-hour blood collection. Subjects were required to consume the same meal items on each of the 8-hour test days.
The plasma was separated and aliquoted into 1.0 mL volume samples. These samples were stored below -40°C until high-performance […] chromatography (HPLC) analysis was performed. Plasma samples were prepared for HPLC analysis by adding 25 μl of 30% w/v aqueous perchloric acid (311413, Sigma-Aldrich, Toronto, Canada) to 250 μl of plasma in a 1.5 ml Eppendorf tube and then vortexed for 30 seconds and centrifuged at 1800 g for 10 min and 20 μl of clear supernatant was injected into the HPLC system.
Paracetamol (50 μg, A5000, Sigma-Aldrich, Toronto, Canada), paracetamol glucuronide (50 μg, A4438, Sigma-Aldrich, Toronto, Canada), or paracetamol sulfate (50 μg, A161230, Toronto Research Chemical Inc., Toronto, Canada) was added to 1 ml of Milli Q water/methanol mixture (50:50 v/v). NAPQI (50 μg, A170000, Toronto Research Chemical) was added to 1 ml acetonitrile. […] standard solutions were prepared in plasma devoid of paracetamol (blank) at the following concentrations: 25 μg/ml, 12.5 μg/ml, 6.25 μg/ml, 3.125 μg/ml, 1.56 μg/ml, 0.78 μg/ml and 0.39 μg/ml by serial dilution.
(§3) The chromatography system comprised of a Varian Solvent Delivery module 210, injector Varian Auto Sampler model 410, Varian 335 Photo Diode Array Detector for detection and MS workstation software 6.4.1 for data acquisition. Reverse phase isocratic HPLC analysis was performed with a C18 column with particle size 4 μm (4.6x150 mm). The flow rate was 0.65-0.75 ml/minute and the detection was at 240–245 nm. A 0.1 M sodium phosphate buffer containing acetonitrile at a ratio of 10:90 (v/v) was used as the mobile phase for plasma analysis. A 1 M sodium phosphate buffer containing acetonitrile at a ratio of 5:95 (v/v) was used as mobile phase for urine analysis.
(§4) Statistical comparisons of maximum concentrations (Cmax) and area under the concentration time curve (AUC) were performed on log transformed data. A paired t-test was used to compare pre- and post-treatment measurements of safety end points: biometrics, vital signs, hematology and blood clinical chemistry parameters. SAS Version 9.1 was used to perform the statistical analysis, with probability values ≤0.05 considered statistically significant.

[2] = Urine acetaminophen and metabolite profile (HPLC) after 1000 mg acetaminophen, at week 0 and after 4 weeks of SBR supplementation; format: in vivo, human; settings: for Urine concentration at time points, week 4 vs week 0 (in words): 0, 2, 4, 6, 8 h after 1000 mg acetaminophen, after 4 weeks SBR; for Increase of urine levels (AUC0-8h) from week 0 to week 4: after 4 weeks SBR supplementation, 1000 mg acetaminophen
Method: as §1, §2
At baseline and week 4, urine was collected in separate containers at 2 hour intervals between 0 and 8 hours, aliquoted into 1.0 mL volumes and stored below -40°C until HPLC analysis. Urine samples were prepared for HPLC analysis by adding 750 μl of Milli Q water to 250 μl of urine and vortexed. The preparation was centrifuged at 1800 g for 10 min and 20 μl of the preparation was injected into the HPLC system.
Paracetamol (5000 μg, A5000, Sigma-Aldrich), paracetamol glucuronide (5000 μg, A4438, Sigma-Aldrich), paracetamol sulfate (5000 μg, A161230, Toronto Research Chemical) or paracetamol mercapturate (5000 μg, A172100, Toronto Research Chemical) were added to 1 ml of a Milli Q water/methanol mixture (50:50 v/v). Serial dilutions of each stock solution were prepared in urine devoid of paracetamol (blank) to give the following concentrations: 2500 μg/ml, 1250 μg/ml, 625 μg/ml, 312.5 μg/ml, 156.25 μg/ml, 78.15 μg/ml, 39.0625 μg/ml, 19.531 μg/ml, 9.766 μg/ml and 4.883 μg/ml by serial dilution.
as §3, §4

[3] = week 0 (before SBR), N=19, mean ± SD
[4] = week 0 (before SBR), healthy males N=19, mean ± SD
[5] = week 4 (after 4 weeks SBR), N=19, mean ± SD
[6] = week 4 (after 4 weeks SBR, 6 tablets daily), N=19, mean ± SD
[7] = after 4 weeks SBR vs week 0, mean ± SD

CC(=O)Nc1ccc(O)c(SC[C@H](NC(=O)CC[C@H](N)C(=O)O)C(=O)NCC(=O)O)c1 [NAPQI-GSH]
Decrease of plasma AUC0-8h from week 0 to week 4 [1]: 9%
Plasma Tmax, difference from week 0 to week 4 [1]: -0.00 ± 0.02 h
Plasma AUC(0–8 hour) [1, 3]: 0.72 ± 0.31 µM·h
Plasma Tmax [1, 3]: 2.03 ± 0.01 h
Plasma Cmax [1, 4]: 180 ± 90 nM
Plasma AUC(0–8 hour) [1, 5]: 0.66 ± 0.22 µM·h
Plasma Tmax [1, 5]: 2.02 ± 0.01 h
Plasma Cmax [1, 6]: 180 ± 40 nM

CC(=O)Nc1ccc(O[C@@H]2O[C@H](C(=O)O)[C@@H](O)[C@H](O)[C@H]2O)cc1 [Acetaminophen glucuronide]
Plasma concentration at time points, week 4 vs week 0 (in words) ([1]; 0, 2, 4, 6, 8 h after 1000 mg acetaminophen, after 4 weeks SBR): decreased significantly at 2 h post-acetaminophen dose
Decrease of plasma AUC0-8h from week 0 to week 4 [1]: 9%
Plasma Tmax, difference from week 0 to week 4 [1]: 0.42 ± 1.26 h
AUC(0-t) [1, 3]: 58000 ± 14500 ng·h/mL
AUC(0-t) [1, 5]: 52800 ± 14100 ng·h/mL
Cmax [1, 4]: 12600 ± 4120 ng/mL
Cmax [1, 6]: 10800 ± 3090 ng/mL
Tmax [1, 3]: 2.13 ± 0.46 h
Tmax [1, 5]: 2.55 ± 1.13 h
Urine concentration at time points, week 4 vs week 0 (in words) [2]: no significant differences
Increase of urine levels (AUC0-8h) from week 0 to week 4 [2]: 1%
Urine AUC(0–8 hour), difference from week 0 to week 4 [2, 7]: -38.69 ± 342.45 mg·h
Urine Cmax, difference from week 0 to week 4 [2, 7]: 19.57 ± 124.28 mg
Urine Tmax, difference from week 0 to week 4 [2, 7]: 0.32 ± 1.67 h

CC(=O)Nc1ccc(O)c(SCC(N)C(=O)O)c1 (centres unmarked) [Acetaminophen mercapturate]
Urine concentration at time points, week 4 vs week 0 (in words) [2]: higher at all time points
Increase of urine levels (AUC0-8h) from week 0 to week 4 [2]: 37%
Urine AUC(0–8 hour), difference from week 0 to week 4 [2, 7]: 22.68 ± 44.43 mg·h
Urine Cmax, difference from week 0 to week 4 [2, 7]: 4.82 ± 9.72 mg
